Experimental data published in US10227362B2 (priority 2015, dated 2019).
≈ marks a conversion by molar mass, not a printed value.

The compounds below were run on Mycobacterium bovis BCG strain TMC1019 (ATCC35737) (assay: microbe, parasite or virus in culture). Conditions: Mycobacterium tuberculosis variant bovis BCG, 24 h, read-out: M. bovis ATCC35737 (ug/mL).
Format: cell-based
`C[C@]1(CN2CCc3nc(-c4ccc(OC(F)(F)F)c(F)c4)ccc3C2)Cn2cc([N+](=O)[O-])nc2O1` [Compound 11, (S)-2-((2-(3-Fluoro-4-(trifluoromethoxy)phenyl)-7,8-dihydro-1,6-naphthyridin-6(5H)-yl)methyl)-2-methyl-6-nitro-2,3-dihydroimidazo[2,1-b]oxazole] showed an MIC of 1 to 32 µg/mL (≈ 2.03 to 64.9 µM).
In the case of `C[C@]1(CN2CCc3nc(-c4cc(Cl)ccc4F)ccc3C2)Cn2cc([N+](=O)[O-])nc2O1` [Compound 15, (S)-2-((2-(5-Chloro-2-fluorophenyl)-7,8-dihydro-1,6-naphthyridin-6(5H)-yl)methyl)-2-methyl-6-nitro-2,3-dihydroimidazo[2,1-b]oxazole], the MIC is reported as under 1 µg/mL.
`C[C@]1(CN2CCc3nc(-c4cccc(F)c4F)ccc3C2)Cn2cc([N+](=O)[O-])nc2O1` [Compound 16, (S)-2-((2-(2,3-Difluorophenyl)-7,8-dihydro-1,6-naphthyridin-6(5H)-yl)methyl)-2-methyl-6-nitro-2,3-dihydroimidazo[2,1-b]oxazole] showed an MIC of under 1 µg/mL.
Work on `C[C@]1(CN2CCc3nc(-c4cc(F)ccc4F)ccc3C2)Cn2cc([N+](=O)[O-])nc2O1` [Compound 17, (S)-2-((2-(2,5-Difluorophenyl)-7,8-dihydro-1,6-naphthyridin-6(5H)-yl)methyl)-2-methyl-6-nitro-2,3-dihydroimidazo[2,1-b]oxazole] yielded an MIC of under 1 µg/mL.
For `C[C@]1(CN2CCc3nc(-c4ccc(F)c(Cl)c4)ccc3C2)Cn2cc([N+](=O)[O-])nc2O1` [Compound 18, (S)-2-((2-(3-Chloro-4-fluorophenyl)-7,8-dihydro-1,6-naphthyridin-6(5H)-yl)methyl)-2-methyl-6-nitro-2,3-dihydroimidazo[2,1-b]oxazole], the MIC was under 1 µg/mL.
Compound `C[C@]1(CN2CCc3nc(-c4cccc(Cl)c4F)ccc3C2)Cn2cc([N+](=O)[O-])nc2O1` [Compound 19, (S)-2-((2-(3-Chloro-2-fluorophenyl)-7,8-dihydro-1,6-naphthyridin-6(5H)-yl)methyl)-2-methyl-6-nitro-2,3-dihydroimidazo[2,1-b]oxazole] has an MIC of under 1 µg/mL.
For `C[C@]1(CN2CCc3nc(-c4cc(F)cc(Cl)c4)ccc3C2)Cn2cc([N+](=O)[O-])nc2O1` [Compound 21, (S)-2-((2-(3-Chloro-5-fluorophenyl)-7,8-dihydro-1,6-naphthyridin-6(5H)-yl)methyl)-2-methyl-6-nitro-2,3-dihydroimidazo[2,1-b]oxazole], the MIC was under 1 µg/mL.
Work on `C[C@]1(CN2CCc3nc(-c4cc(F)ccc4Cl)ccc3C2)Cn2cc([N+](=O)[O-])nc2O1` [Compound 22, (S)-2-((2-(2-Chloro-5-fluorophenyl)-7,8-dihydro-1,6-naphthyridin-6(5H)-yl)methyl)-2-methyl-6-nitro-2,3-dihydroimidazo[2,1-b]oxazole] yielded an MIC of under 1 µg/mL.
With `C[C@]1(CN2CCc3nc(-c4ccc(Cl)cc4F)ccc3C2)Cn2cc([N+](=O)[O-])nc2O1` [Compound 23, (S)-2-((2-(4-Chloro-2-fluorophenyl)-7,8-dihydro-1,6-naphthyridin-6(5H)-yl)methyl)-2-methyl-6-nitro-2,3-dihydroimidazo[2,1-b]oxazole] the MIC was under 1 µg/mL.
Work on `C[C@]1(CN2CCc3nc(C4CC4)ccc3C2)Cn2cc([N+](=O)[O-])nc2O1` [Compound 26, (S)-2-((2-Cyclopropyl-7,8-dihydro-1,6-naphthyridin-6(5H)-yl)methyl)-2-methyl-6-nitro-2,3-dihydroimidazo[2,1-b]oxazole] yielded an MIC of under 1 µg/mL.
With `C[C@]1(CN2CCc3nc(N4CCCCC4)ccc3C2)Cn2cc([N+](=O)[O-])nc2O1` [Compound 28, (S)-2-Methyl-6-nitro-2-((2-(piperidin-1-yl)-7,8-dihydro-1,6-naphthyridin-6(5H)-yl)methyl)-2,3-dihydroimidazo[2,1-b]oxazole] the MIC was under 1 µg/mL.
With `C[C@]1(CN2CCc3nc(Nc4ccc(F)cc4)ccc3C2)Cn2cc([N+](=O)[O-])nc2O1` [Compound 33, (S)—N-(4-Fluorophenyl)-6-((2-methyl-6-nitro-2,3-dihydroimidazo[2,1-b]oxazol-2-yl)methyl)-5,6,7,8-tetrahydro-1,6-naphthyridin-2-amine] the MIC was under 1 µg/mL.
`C[C@]1(CN2CCc3nc(-c4cc(F)cc(F)c4)ncc3C2)Cn2cc([N+](=O)[O-])nc2O1` [Compound 48, (S)-2-((2-(3,5-Difluorophenyl)-7,8-dihydropyrido[4,3-d]pyrimidin-6(5H)-yl)methyl)-2-methyl-6-nitro-2,3-dihydroimidazo[2,1-b]oxazole] gave an MIC of under 1 µg/mL.
In the case of `C[C@]1(CN2CCc3nc(-c4ccsc4Cl)ccc3C2)Cn2cc([N+](=O)[O-])nc2O1` [Compound 53, (S)-2-((2-(2-Chlorothiophen-3-yl)-7,8-dihydro-1,6-naphthyridin-6(5H)-yl)methyl)-2-methyl-6-nitro-2,3-dihydroimidazo[2,1-b]oxazole], the MIC is reported as under 1 µg/mL.
Compound `C[C@]1(CN2CCc3nc(C4CCCCC4)ccc3C2)Cn2cc([N+](=O)[O-])nc2O1` [Compound 59, (S)-2-((2-Cyclohexyl-7,8-dihydro-1,6-naphthyridin-6(5H)-yl)methyl)-2-methyl-6-nitro-2,3-dihydroimidazo[2,1-b]oxazole] has an MIC of under 1 µg/mL.
`C[C@]1(CN2CCc3oc(-c4ccc(F)cc4)cc3C2)Cn2cc([N+](=O)[O-])nc2O1` [Compound 64, (S)-2-(4-Fluorophenyl)-5-((2-methyl-6-nitro-2,3-dihydroimidazo[2,1-b]oxazol-2-yl)methyl)-4,5,6,7-tetrahydrofuro[3,2-c]pyridine] gave an MIC of under 1 µg/mL.
Work on `C[C@]1(CN2Cc3nc(-c4ccc(OC(F)(F)F)cc4)sc3C2)Cn2cc([N+](=O)[O-])nc2O1` [Compound 73, (S)-2-Methyl-6-nitro-2-((2-(4-(trifluoromethoxy)phenyl)-4H-pyrrolo[3,4-d]thiazol-5(6H)-yl)methyl)-2,3-dihydroimidazo[2,1-b]oxazole] yielded an MIC of 1 to 32 µg/mL (≈ 2.14 to 68.5 µM).
Work on `C[C@]1(Cn2cc3nc(-c4ccc(F)cc4)sc3c2)Cn2cc([N+](=O)[O-])nc2O1` [Compound 75, (S)-2-((2-(4-Fluorophenyl)-5H-pyrrolo[3,4-d]thiazol-5-yl)methyl)-2-methyl-6-nitro-2,3-dihydroimidazo[2,1-b]oxazole] yielded an MIC of 1 to 32 µg/mL (≈ 2.5 to 80.1 µM).
Compound `C[C@]1(CN2Cc3nc(-c4cc(F)c(F)cc4F)sc3C2)Cn2cc([N+](=O)[O-])nc2O1` [Compound 83, (S)-2-Methyl-6-nitro-2-((2-(2,4,5-trifluorophenyl)-4H-pyrrolo[3,4-d]thiazol-5(6H)-yl)methyl)-2,3-dihydroimidazo[2,1-b]oxazole] has an MIC of under 1 µg/mL.
`C[C@]1(CN2Cc3nc(-c4ccc(F)c(F)c4)oc3C2)Cn2cc([N+](=O)[O-])nc2O1` [Compound 90, (S)-2-(3,4-Difluorophenyl)-5-((2-methyl-6-nitro-2,3-dihydroimidazo[2,1-b]oxazol-2-yl)methyl)-5,6-dihydro-4H-pyrrolo[3,4-d]oxazole] gave an MIC of under 1 µg/mL.
`C[C@]1(CN2Cc3nc(-c4cc(F)c(F)cc4F)oc3C2)Cn2cc([N+](=O)[O-])nc2O1` [Compound 94, (S)-5-((2-Methyl-6-nitro-2,3-dihydroimidazo[2,1-b]oxazol-2-yl)methyl)-2-(2,4,5-trifluorophenyl)-5,6-dihydro-4H-pyrrolo[3,4-d]oxazole] was tested, and the MIC was under 1 µg/mL.
